{
  "source": "patent US20160212997A1",
  "about": "“AGRICULTURAL CHEMICALS” (REDAG CROP PROTECTION LTD, priority 2013, published 2016)",
  "type_in_all_cases": "in vivo",
  "key": {"[1]": {"test_system": "Cabbage moth, Mamestra brassicae", "experiment": "Potter tower spray on cabbage moth larvae, knockdown and mortality", "conditions": "Cabbage moths", "text": "(§1) The compounds were screened for insecticidal efficacy against aphids, Myzus persicae, Cabbage moth, Mamestra brassicae, diamond black moths, Plutella xylostella, red spider mites, Tetranychus urticae, whitefly, Trialeurodes vaporariorum, in terms of knockdown and mortality.\n(§2) Myzus persicae, Cabbage moth, Mamestra brassicae, diamond back moths, Plutella xylostella, red spider mites, Tetranychus urticae, whitefly, Trialeurodes vaporariorum, were obtained from specified laboratory cultures. Mixed sex and age aphids and mites, moth larvae and whitefly scale infested leaves were used in the experiments. Environmental conditions were closely monitored and recorded and were within the optimal range of the target species.\n(§3) The compounds were screened at a range of five concentrations, diluted in DMSO. Some of the compounds were screened against aphids, whitefly and red spider mites and other compounds were screened against cabbage moth, and diamond black moths. A carrier only and an untreated control will also be conducted. Treatments were applied directly onto the insects within Petri dishes, using a potter tower.\n(§4) Twenty mites and ten aphids, scales and moth larvae were placed within a Petri dish, lined with a suitable leaf disc on a damp cotton wool pad. Scales were already on leaves. The Petri dishes were then sprayed using a potter tower. The number of knocked down and anthropods were assessed at 24 and 48 hours post treatment. Five replicates were be performed for each treatment, for each species."}, "[2]": {"test_system": "Tomato moths", "experiment": "Potter tower spray on tomato moths, knockdown and mortality", "text": "as §3, §4"}, "[3]": {"test_system": "aphids, Myzus persicae", "experiment": "Potter tower spray on aphids, knockdown and mortality", "conditions": "Aphids", "how_it_was_run": "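Ten aphids (mixed sex and age) per Petri dish on a leaf disc were sprayed by Potter tower with compounds at five concentrations in DMSO. Knockdown and mortality were scored at 24 and 48 hours, five replicates per treatment, alongside carrier-only and untreated controls.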"}, "[4]": {"test_system": "red spider mites, Tetranychus urticae", "experiment": "Potter tower spray on red spider mites, knockdown and mortality", "conditions": "Spider mites", "text": "as §1, §2, §3, §4"}, "[5]": {"test_system": "Tomato moths", "experiment": "Potter tower spray on tomato moths, knockdown and mortality", "remark": "listed apart in the source"}},
  "data": [
    {"smiles": "CC(c1ccc(C(F)(F)F)nc1)S(C)(=O)=NC#N", "note": "(stereo not shown) [Compound 11, N-[Methyl-oxo-[1-[6-(trifluoromethyl)-3-pyridyl]ethyl]-λ^6-sulfanylidene]cyanamide, reference compound]", "values": [
      {"measurement": "percentage control", "setting": "[1]; 12.5 g/ha, 24 h", "result": "E (A percentage control of from 1 to 19 is indicated by the letter E)"},
      {"measurement": "percentage control", "setting": "[1]; 12.5 g/ha, 48 h", "result": "E (A percentage control of from 1 to 19 is indicated by the letter E)"},
      {"measurement": "percentage control", "setting": "[1]; 25 g/ha, 24 h", "result": "E (A percentage control of from 1 to 19 is indicated by the letter E)"},
      {"measurement": "percentage control", "setting": "[1]; 25 g/ha, 48 h", "result": "E (A percentage control of from 1 to 19 is indicated by the letter E)"},
      {"measurement": "percentage control", "setting": "[1]; 50 g/ha, 24 h", "result": "E (A percentage control of from 1 to 19 is indicated by the letter E)"},
      {"measurement": "percentage control", "setting": "[1]; 50 g/ha, 48 h", "result": "E (A percentage control of from 1 to 19 is indicated by the letter E)"},
      {"measurement": "percentage control", "setting": "[1]; 100 g/ha, 24 h", "result": "E (A percentage control of from 1 to 19 is indicated by the letter E)"},
      {"measurement": "percentage control", "setting": "[1]; 100 g/ha, 48 h", "result": "E (A percentage control of from 1 to 19 is indicated by the letter E)"},
      {"measurement": "percentage control", "setting": "[1]; 200 g/ha, 24 h", "result": "E (A percentage control of from 1 to 19 is indicated by the letter E)"},
      {"measurement": "percentage control", "setting": "[1]; 200 g/ha, 48 h", "result": "E (A percentage control of from 1 to 19 is indicated by the letter E)"},
      {"measurement": "percentage control", "setting": "[2]; 12.5 g/ha, 24 h", "result": 0, "unit": "%"},
      {"measurement": "percentage control", "setting": "[2]; 25 g/ha, 24 h", "result": "E (A percentage control of from 1 to 19 is indicated by the letter E)"},
      {"measurement": "percentage control", "setting": "[2]; 25 g/ha, 48 h", "result": "E (A percentage control of from 1 to 19 is indicated by the letter E)"},
      {"measurement": "percentage control", "setting": "[2]; 50 g/ha, 24 h", "result": 0, "unit": "%"},
      {"measurement": "percentage control", "setting": "[2]; 50 g/ha, 48 h", "result": "E (A percentage control of from 1 to 19 is indicated by the letter E)"},
      {"measurement": "percentage control", "setting": "[2]; 100 g/ha, 48 h", "result": "E (A percentage control of from 1 to 19 is indicated by the letter E)"},
      {"measurement": "percentage control", "setting": "[2]; 200 g/ha, 24 h", "result": "E (A percentage control of from 1 to 19 is indicated by the letter E)"},
      {"measurement": "percentage control", "setting": "[2]; 200 g/ha, 48 h", "result": "E (A percentage control of from 1 to 19 is indicated by the letter E)"},
      {"measurement": "percentage control", "setting": "[3]; 12.5 g/ha, 24 h", "result": "C (A percentage control of from 40 to 59 is indicated by the letter C)"},
      {"measurement": "percentage control", "setting": "[3]; 12.5 g/ha, 48 h", "result": "B (A percentage control of from 60 to 79 is indicated by the letter B)"},
      {"measurement": "percentage control", "setting": "[3]; 25 g/ha, 24 h", "result": "E (A percentage control of from 1 to 19 is indicated by the letter E)"},
      {"measurement": "percentage control", "setting": "[3]; 25 g/ha, 48 h", "result": "B (A percentage control of from 60 to 79 is indicated by the letter B)"},
      {"measurement": "percentage control", "setting": "[3]; 50 g/ha, 24 h", "result": "D (A percentage control of from 20 to 39 is indicated by the letter D)"},
      {"measurement": "percentage control", "setting": "[3]; 50 g/ha, 48 h", "result": "B (A percentage control of from 60 to 79 is indicated by the letter B)"},
      {"measurement": "percentage control", "setting": "[3]; 100 g/ha, 24 h", "result": "A (A percentage control of from 80 to 100 is indicated by the letter A)"},
      {"measurement": "percentage control", "setting": "[3]; 100 g/ha, 48 h", "result": "A (A percentage control of from 80 to 100 is indicated by the letter A)"},
      {"measurement": "percentage control", "setting": "[3]; 200 g/ha, 24 h", "result": "B (A percentage control of from 60 to 79 is indicated by the letter B)"},
      {"measurement": "percentage control", "setting": "[3]; 200 g/ha, 48 h", "result": "A (A percentage control of from 80 to 100 is indicated by the letter A)"},
      {"measurement": "percentage control", "setting": "[4]; 12.5 g/ha, 24 h", "result": "E (A percentage control of from 1 to 19 is indicated by the letter E)"},
      {"measurement": "percentage control", "setting": "[4]; 12.5 g/ha, 48 h", "result": "D (A percentage control of from 20 to 39 is indicated by the letter D)"},
      {"measurement": "percentage control", "setting": "[4]; 25 g/ha, 24 h", "result": "E (A percentage control of from 1 to 19 is indicated by the letter E)"},
      {"measurement": "percentage control", "setting": "[4]; 25 g/ha, 48 h", "result": "E (A percentage control of from 1 to 19 is indicated by the letter E)"},
      {"measurement": "percentage control", "setting": "[4]; 50 g/ha, 24 h", "result": "D (A percentage control of from 20 to 39 is indicated by the letter D)"},
      {"measurement": "percentage control", "setting": "[4]; 50 g/ha, 48 h", "result": "D (A percentage control of from 20 to 39 is indicated by the letter D)"},
      {"measurement": "percentage control", "setting": "[4]; 100 g/ha, 24 h", "result": "D (A percentage control of from 20 to 39 is indicated by the letter D)"},
      {"measurement": "percentage control", "setting": "[4]; 100 g/ha, 48 h", "result": "D (A percentage control of from 20 to 39 is indicated by the letter D)"},
      {"measurement": "percentage control", "setting": "[4]; 200 g/ha, 24 h", "result": "C (A percentage control of from 40 to 59 is indicated by the letter C)"},
      {"measurement": "percentage control", "setting": "[4]; 200 g/ha, 48 h", "result": "C (A percentage control of from 40 to 59 is indicated by the letter C)"},
      {"measurement": "percentage control", "setting": "[5]; 12.5 g/ha, 48 h", "result": "E (A percentage control of from 1 to 19 is indicated by the letter E)"},
      {"measurement": "percentage control", "setting": "[5]; 100 g/ha, 24 h", "result": "E (A percentage control of from 1 to 19 is indicated by the letter E)"}
    ]}
  ]
}
